# Data taken from patent publication US4201786A, “Water soluble pesticidal quaternary ammonium salt compounds” (Union Carbide Corporation, priority 1977, dated 1980).
# Key:
# [1] = Water solubility (Table I); assay type: physicochemical; conditions: 25° C.
# [2] = test system: bean aphid (Aphis fabae Scop.); assay: Bean aphid foliage spray test; assay type: in vivo; design: key: A: Excellent control; B: Partial control; C: No control; conditions: 500 ppm, 24 hour
# Protocol: (§1) Suspensions of the test compounds were prepared by dissolving one gram of compound in 50 milliliters of acetone in which had been dissolved 0.1 gram (10 percent of the weight of compound) of an alkylphenoxy polyethoxyethanol surfactant, as an emulsifying or dispersing agent. The resulting solution was mixed into 150 milliliters of water to give roughly 200 milliliters of a suspension containing the compound in finely divided form. The thus-prepared stock suspension contained 0.5 percent by weight of test compound. The test concentrations in parts per million by weight employed in the tests described hereinbelow were obtained by appropriate dilutions of the stock suspension with water. The test procedures were as follows:
# Adults and nymphal stages of the bean aphid (Aphis fabae Scop.) reared on potted dwarf nasturtium plants at 65°-70° F. and 50-70 percent relative humidity, constituted the test insects. For testing purposes, the number of aphids per pot was standardized to 100-150 by trimming plants containing excess aphids.
# The test compounds were formulated by diluting the stock suspension with water to give a suspension containing 500 parts of test compound per million parts of final formulation.
# The potted plants (one pot per compound tested) infested with 100-150 aphids, were placed on a revolving turntable and sprayed with 100-110 milliliters of test compound formulation by use of a DeVilbiss spray gun set at 40 psig. air pressure. This application, which lasted 25 seconds, was sufficient to wet the plants to run-off. As a control, 100-110 milliliters of a water-acetone-emulsifier solution containing no test compound were also sprayed on infested plants. After spraying, the pots were placed on their sides on a sheet of white standard mimeograph paper which had been previously ruled to facilitate counting. Temperature and humidity in the test room during the 24 hour holding period were 65°-70° F. and 50-70 percent, respectively. Aphids which fell onto the paper and were unable to remain standing after being uprighted were considered dead. Aphids remaining on the plants were observed closely for movement and those which were unable to move the length of the body upon stimulator by prodding were considered dead. Percent mortality was recorded for various concentration levels.
# (§2) In these test the pesticidal activity of the compounds against aphid, mite, Southern Armyworm, Mexican Bean Beetle, and house fly was rated as follows: […]
# [3] = test system: two-spotted mite (Tetranychus urticae Koch); assay: Mite foliage spray test; assay type: in vivo; design: key: A: Excellent control; B: Partial control; C: No control; conditions: 500 ppm, six days
# Protocol: as §1
# Adults and nymphal stages of the two-spotted mite (Tetranychus urticae Koch), reared on Tendergreen bean plants at 80±5 percent relative humidity, were the test organisms. Infested leaves from a stock culture were placed on the primary leaves of two bean plants six to eight inches in height, growing in a two- and-a-half inch clay pot. 150-200 mites, a sufficient number for testing, transferred from the excised leaves to the fresh plants in a period of twenty-four hours. Following the twenty-four hour transfer period, the excised leaves were removed from the infested plants. The test compounds were formulated by diluting the stock suspension with water to give a suspension with water to give a suspension containing 500 parts of test compound per million parts of final formulation. The potted plants (one pot per compound) were placed on a revolving turntable and sprayed with 100-110 milliliters of test compound formulation by use of a DeVilbiss spray gun set at 40 psig. air pressure. This application, which lasted for 25 seconds was sufficient to wet the plants to run-off. As a control, 100-110 milliliters of a water solution containing acetone and emulsifier in the same concentrations as the test compound formulation, but containing no test compound, were also sprayed on infested plants. The sprayed plants were held at 80±5 percent relative humidity for six days, after which a mortality count of motile forms was made. Microscopic examination for motile forms was made on the leaves of the test plants. Any individual which was capable of locomotion upon prodding, was considered living.
# as §2
# [4] = test system: Corn; assay: Phytotoxicity test, corn; assay type: in vivo; design: key: 1: no perceptible injury; 2: intermediate degrees of injury based upon the number and extent to which leaves were injured; 3: intermediate degrees of injury based upon the number and extent to which leaves were injured; 4: intermediate degrees of injury based upon the number and extent to which leaves were injured; 5: the plant was dead; conditions: 2500 ppm spray, after ten days
# Protocol: as §1
# (§3) Experiments were also conducted to determine the phytotoxicity of representative compositions with respect to healthy fresh plants. Solutions of the compounds were prepared as described above to provide a concentration of 2500 parts per million of the test compound. The test plants were sprayed in accordance with the procedure described above for the Mite Foliage Spray Test so as to deliver approximately 100 milliliters of test solution to the leaves of each plant tested. The sprayed plants and controls were set aside for approximately one hour to allow the solutions to dry and were then placed in the greenhouse. After ten days the plants were visually inspected to determine the extent of foliage injury. A rating of 1 indicates no perceptible injury; 5 indicates the plant was dead and ratings of 2, 3 and 4 indicate intermediate degrees of injury based upon the number and extent to which leaves were injured.
# [5] = test system: Tomato; assay: Phytotoxicity test, tomato; assay type: in vivo; design: key: 1: no perceptible injury; 2: intermediate degrees of injury based upon the number and extent to which leaves were injured; 3: intermediate degrees of injury based upon the number and extent to which leaves were injured; 4: intermediate degrees of injury based upon the number and extent to which leaves were injured; 5: the plant was dead; conditions: 2500 ppm spray, after ten days
# Protocol: as §1, §3
SMILES,solubility [1] [mg/mL],"Pesticidal activity, Aphid [2]","Pesticidal activity, Mite [3]","POST-Emergent Herbicidal (phytotoxicity rating), Corn [4]","POST-Emergent Herbicidal (phytotoxicity rating), Tomato [5]"
CN(C(=O)C[N+](C)(C)C)C(=O)Oc1cccc2c1OC(C)(C)C2,570,A,C,1,2
CN(C(=O)C[n+]1ccn(C)c1)C(=O)Oc1cccc2c1OC(C)(C)C2,370,A,A,1,1
CN(C(=O)C[n+]1ccc(N(C)C)cc1)C(=O)Oc1cccc2c1OC(C)(C)C2,160,A,A,1,1
CN(C(=O)C[N+]1(C)CCCC1)C(=O)Oc1cccc2c1OC(C)(C)C2,490,A,A,1,1
CCCCCCCCCCCCCCCCCC[N+](C)(C)CC(=O)N(C)C(=O)Oc1cccc2c1OC(C)(C)C2,> 250,B,C,2,1
CCCCCCCCCCCC[N+](C)(C)CC(=O)N(C)C(=O)Oc1cccc2c1OC(C)(C)C2,> 250,A,A,2,2
